Experimental data from PMC8427973, “Regulation of the HTRA2 Protease Activity by an Inhibitory Antibody-Derived Peptide Ligand and the Influence on HTRA2-Specific Protein Interaction Networks in Retinal Tissues” (Biomedicines, 2021).
Values belong to the molecule of their own block, whether it stands above or below them.

Assays:
HTRA2-PDZ domain = tested on: HTRA2-PDZ domain; parameters: method as in PMID 23457469; settings: cited from earlier work
[1] = biological target: T1, recombinant HTRA2 protein (Homo sapiens, UniProt O43464); assay: HTRA2 protease activity assay with fluorescent H2-optimal substrate; assay type: biochemical; settings: for Inhibitory effect on HTRA2 after targeted alanine substitution in the CDR binding motif (mutational analysis): protease activity assay, Figure S1; for Increase of the average degradation rate of the optimal substrate H2 with respect to the untreated positive control: 100 nM HTRA2, 10 µM substrate, RT; for Average degradation rate of the optimal substrate H2 by HTRA2 (enzymatic reaction rate per minute): 100 nM recombinant HTRA2, 10 µM H2-optimal substrate, pH 8.0, RT, fluorescence ex 320 nm / em 405 nm, untreated positive control 229 U/min
T1 construct: 6xHis (C); purchased Novoprotein Scientific INC., Summit, NJ, USA
T1 sequence (O43464 134-458): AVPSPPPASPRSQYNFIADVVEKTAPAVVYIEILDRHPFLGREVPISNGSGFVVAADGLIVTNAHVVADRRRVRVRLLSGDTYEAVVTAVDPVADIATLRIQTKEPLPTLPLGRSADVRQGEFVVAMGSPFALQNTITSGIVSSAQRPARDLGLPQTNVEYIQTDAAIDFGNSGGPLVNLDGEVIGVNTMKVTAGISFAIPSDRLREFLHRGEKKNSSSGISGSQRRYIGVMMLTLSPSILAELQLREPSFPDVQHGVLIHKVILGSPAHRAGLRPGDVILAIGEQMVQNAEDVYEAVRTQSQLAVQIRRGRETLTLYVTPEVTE
Method: The HTRA2 protease activity assay was performed as described by Martins et al. (2003), but with some slight modifications. The experiment was performed with 100 nM recombinant HTRA2 protein (Novoprotein Scientific INC., Summit, NJ, USA) in a protease assay buffer (50 mM tris(hydroxymethyl)-aminomethane (TRIS), 0.5 mM ethylenediaminetetraacetic acid (EDTA), and 1 mM dithiothreitol (DTT), pH 8.0) containing 10 µM H2-optimal substrate (Innovagen AB, Lund, Sweden). The H2-optimal substrate is commonly used to measure the protease activity of HTRA2 and consists of a structural quencher and a fluorophore unit. The cleavage of the substrate leads to the disruption of the quencher/fluorophore complex and the degradation rate can be measured by fluorescence. The different sample groups were treated with 50 µM PDZ-Opt, 50 µM PDZ-Sub, 50 µM synthetic CDR1 peptide, or 30 µM UCF-101, respectively. The drug compound UCF-101 is an inhibitor of the catalytic domain of HTRA2 and was purchased from Sigma Aldrich (Darmstadt, Germany). The concentrations of the peptide ligands for the HTRA2 protease activity assay were chosen from the previous publication. The concentration of UCF-101 was determined to be optimal from the preliminary experiments. In addition, a positive control containing only 100 nM recombinant HTRA2 and a negative control (only protease assay buffer) were included in this experiment. All of the sample groups were incubated for 1 h at 37 °C to determine the maximum degradation rate of HTRA2. For the analysis of the enzymatic reaction rate of HTRA2, all samples were measured subsequently after the addition of the 10 µM H2-optimal substrate at RT. Fluorescence was monitored on a Spark® 10 M multimode microplate-reader (Tecan Trading AG, Männedorf, Switzerland) with an excitation at 320 nm and a fluorescence emission at 405 nm. The fluorescence background of the substrate was substracted from the fluorescence intensities of the different the sample groups to normalize the data.
To determine the proteolytic activity of HTRA2 we used the fluorescent H2 optimal substrate developed by Martins et al. (2003). The optimal substrate H2 encoded a short specific amino acid sequence, which is preferentially cleaved by HTRA2, and was also modified with a fluorescent dye and quencher. […] Under physiological conditions, the proteolytic activity of HTRA2 is suppressed by the C-terminal PDZ domain, which blocks the access of potential substrates to the catalytic domain by steric hindrance. The binding of short hydrophobic polypeptides to the allosteric PDZ domain can induce specific conformational changes of HTRA2 and are able to regulate its proteolytic activity. Therefore, Martins et al. (2003) specifically designed the peptide ligands PDZ-Opt (GQYYFV) and PDZ-Sub (GGIRRV), which are known to increase the proteolytic activity of HTRA2 in this assay.

[2] = biological target: Serine protease HTRA2, mitochondrial (recombinant, 6xHis-tag) (UniProt O43464)

Molecule: AGYTGFV
Glide score for binding to the HTRA2-PDZ domain (HTRA2-PDZ domain): -7.903 kcal/mol

Molecule: ASGATFTNYGLSWVR [Y(4), CDR peptide for the mutational analysis, alanine at position 4]
Inhibitory effect on HTRA2 after targeted alanine substitution in the CDR binding motif (mutational analysis) [1]: particular important presence of Y(4) and F(6) for the inhibitory effect on HTRA2

Molecule: ASGYAFTNYGLSWVR [T(5) to A(5), CDR peptide for the mutational analysis, alanine at position 5]
Inhibitory effect on HTRA2 after targeted alanine substitution in the CDR binding motif (mutational analysis) [1]: significantly strengthened the inhibitory effect

Molecule: ASGYTATNYGLSWVR [F(6), CDR peptide for the mutational analysis, alanine at position 6]
Inhibitory effect on HTRA2 after targeted alanine substitution in the CDR binding motif (mutational analysis) [1]: particular important presence of Y(4) and F(6) for the inhibitory effect on HTRA2

Increase of the average degradation rate of the optimal substrate H2 with respect to the untreated positive control ([1]; 50 µM peptide): up to 18%
Average degradation rate of the optimal substrate H2 by HTRA2 (enzymatic reaction rate per minute) ([1]; 50 µM peptide): 272 U/min
Molecule: GGIRRV [PDZ-Sub, a peptide generated by HTRA2 auto-proteolysis, reference compound]

Increase of the average degradation rate of the optimal substrate H2 with respect to the untreated positive control ([1]; 50 µM peptide): up to 50%
Average degradation rate of the optimal substrate H2 by HTRA2 (enzymatic reaction rate per minute) ([1]; 50 µM peptide): 345 U/min
Molecule: GQYYFV [PDZ-Opt, reference compound]

Molecule: YVWAGSTLSRTGNFY [scrambled CDR, scrambled CDR peptide analog]
Maximum degradation rate of the H2 optimal substrate by HTRA2 ([1]; 50 µM peptide, 1 h at 37 °C, n = 3, Figure 1C): unable to induce the suppression of the HTRA2 protease activity

average degradation rate of the fluorescent H2 optimal substrate (10 µM) by 100 nM HTRA2 with 50 µM PDZ-Sub; untreated HTRA2 229 U/min (increase up to 18%) [2]: 272 U/min
B1: PDZ-Sub (peptide)
peptide: GGIRRV

average degradation rate of the fluorescent H2 optimal substrate (10 µM) by 100 nM HTRA2 with 50 µM PDZ-Opt; untreated HTRA2 229 U/min (increase up to 50%) [2]: 345 U/min
B2: PDZ-Opt (peptide)
peptide: GQYYFV
